Results taken from ChEMBL document CHEMBL3046483, “Novel 2'-hydroxylfurylchalcones: synthesis and biological activity” (2010).
Calls of active or inactive are those of the source. No cut-off for these calls is given here.

Assays:
Dinebra chinensis [1] = experiment: Herbicidal activity against Dinebra chinensis assessed as inhibitory rate of fresh weight gain at 7.5 g/hm'2 relative to control; assay type: functional
Dinebra chinensis [2] = experiment: Herbicidal activity against Dinebra chinensis assessed as inhibitory rate of seedling height at 7.5 g/hm'2 relative to control; assay type: functional
Amaranthus tricolor [3] = experiment: Herbicidal activity against Amaranthus tricolor assessed as inhibitory rate of fresh weight gain at 7.5 g/hm'2 relative to control; assay type: functional
[4] = system: Brassica rapa subsp. oleifera; experiment: Herbicidal activity against Brassica rapa subsp. oleifera assessed as inhibitory rate of fresh weight gain at 7.5 g/hm'2 relative to control; assay type: functional
[5] = system: Golovinomyces cichoracearum; experiment: Antifungal activity against Golovinomyces cichoracearum assessed as cucumber powdery mildew control measured after 1 day; assay type: functional; set-up: concentration or dose not given beside the values
Pyricularia grisea = experiment: Antifungal activity against Magnaporthe grisea assessed as rice blast control measured after 1 day; assay type: functional, organism-based
Triticum aestivum [6] = experiment: Herbicidal activity against Triticum aestivum (wheat) assessed as inhibitory rate of fresh weight gain at 7.5 g/hm'2 relative to control; assay type: functional
Triticum aestivum [7] = experiment: Herbicidal activity against Triticum aestivum (wheat) assessed as inhibitory rate of seedling height at 7.5 g/hm'2 relative to control; assay type: functional
[8] = system: Brassica rapa subsp. oleifera; experiment: Herbicidal activity against Brassica rapa subsp. oleifera assessed as inhibitory rate of seedling height at 7.5 g/hm'2 relative to control; assay type: functional
Amaranthus tricolor [9] = experiment: Herbicidal activity against Amaranthus tricolor assessed as inhibitory rate of seedling height at 7.5 g/hm'2 relative to control; assay type: functional
[10] = system: Pseudoperonospora cubensis; experiment: Antifungal activity against Pseudoperonospora cubensis assessed as cucumber downy mildew control measured after 1 day; assay type: functional, organism-based
Cucumis sativus [11] = experiment: Herbicidal activity against Cucumis sativus (cucumber) assessed as inhibitory rate of fresh weight gain at 7.5 g/hm'2 relative to control; assay type: functional
Botrytis cinerea = experiment: Antifungal activity against Botryotinia fuckeliana assessed as cucumber grey mould control measured after 1 day; assay type: functional, organism-based
Cucumis sativus [12] = experiment: Herbicidal activity against Cucumis sativus (cucumber) assessed as inhibitory rate of seedling height at 7.5 g/hm'2 relative to control; assay type: functional
Sorghum bicolor [13] = experiment: Herbicidal activity against Sorghum bicolor assessed as inhibitory rate of fresh weight gain at 7.5 g/hm'2 relative to control; assay type: functional
Sorghum bicolor [14] = experiment: Herbicidal activity against Sorghum bicolor assessed as inhibitory rate of seedling height at 7.5 g/hm'2 relative to control; assay type: functional

## O=C(/C=C/c1ccc(Cl)cc1)c1occc1O
Dinebra chinensis [1]
  inhibition (INH): 52.6%
Dinebra chinensis [2]
  inhibition (INH): -3.9%
Amaranthus tricolor [3]
  inhibition (INH): 81.2%
[4]
  inhibition (INH): 83.5%
[5]
  Activity: <10%
Pyricularia grisea
  Activity: inactive
Triticum aestivum [6]
  inhibition (INH): 64.6%
Triticum aestivum [7]
  inhibition (INH): 41.8%
[8]
  inhibition (INH): 52.4%
Amaranthus tricolor [9]
  inhibition (INH): 37.5%
[10]
  Activity: inactive
Cucumis sativus [11]
  inhibition (INH): 68.2%
Botrytis cinerea
  Activity: inactive
Cucumis sativus [12]
  inhibition (INH): 36.5%

## O=C(/C=C/c1ccccc1)c1occc1O
Dinebra chinensis [1]
  inhibition (INH): 31.3%
Dinebra chinensis [2]
  inhibition (INH): -4.4%
Amaranthus tricolor [3]
  inhibition (INH): 32.6%
[4]
  inhibition (INH): 60.3%
[5]
  Activity: <10%
Pyricularia grisea
  Activity: inactive
Triticum aestivum [6]
  inhibition (INH): 46.2%
Sorghum bicolor [13]
  inhibition (INH): 36%
Triticum aestivum [7]
  inhibition (INH): 37.2%
Sorghum bicolor [14]
  inhibition (INH): 55.3%
[8]
  inhibition (INH): 38.1%
Amaranthus tricolor [9]
  inhibition (INH): 18.8%
[10]
  Activity: inactive
Cucumis sativus [11]
  inhibition (INH): 1.3%
Botrytis cinerea
  Activity: inactive
Cucumis sativus [12]
  inhibition (INH): 33.7%

## O=C(/C=C/c1ccc2ccccc2c1)c1occc1O
Dinebra chinensis [1]
  inhibition (INH): 55.9%
Dinebra chinensis [2]
  inhibition (INH): -7.4%
Amaranthus tricolor [3]
  inhibition (INH): 90.6%
[4]
  inhibition (INH): 72.9%
[5]
  Activity: <10%
Pyricularia grisea
  Activity: inactive
Triticum aestivum [6]
  inhibition (INH): 45.4%
Triticum aestivum [7]
  inhibition (INH): 27.1%
[8]
  inhibition (INH): 52.4%
Amaranthus tricolor [9]
  inhibition (INH): 37.5%
[10]
  Activity: inactive
Cucumis sativus [11]
  inhibition (INH): 44%
Botrytis cinerea
  Activity: inactive
Cucumis sativus [12]
  inhibition (INH): 41.3%

## O=C(/C=C/c1ccc(Br)cc1)c1occc1O
Dinebra chinensis [1]
  inhibition (INH): 66.7%
Dinebra chinensis [2]
  inhibition (INH): 4.2%
Amaranthus tricolor [3]
  inhibition (INH): 71.7%
[4]
  inhibition (INH): 66.7%
[5]
  Activity: <10%
Pyricularia grisea
  Activity: inactive
Triticum aestivum [6]
  inhibition (INH): 64.2%
Triticum aestivum [7]
  inhibition (INH): 42.5%
[8]
  inhibition (INH): 52.4%
Amaranthus tricolor [9]
  inhibition (INH): 37.5%
[10]
  Activity: inactive
Cucumis sativus [11]
  inhibition (INH): 34.5%
Botrytis cinerea
  Activity: inactive
Cucumis sativus [12]
  inhibition (INH): 40.5%

## O=C(/C=C/c1ccc(F)cc1)c1occc1O
Dinebra chinensis [1]
  inhibition (INH): 19%
Dinebra chinensis [2]
  inhibition (INH): 3.5%
Amaranthus tricolor [3]
  inhibition (INH): 24.3%
[4]
  inhibition (INH): 15.1%
[5]
  Activity: <10%
Pyricularia grisea
  Activity: inactive
Triticum aestivum [6]
  inhibition (INH): 40.6%
Triticum aestivum [7]
  inhibition (INH): 37%
[8]
  inhibition (INH): 19%
Amaranthus tricolor [9]
  inhibition (INH): 6.3%
[10]
  Activity: inactive
Cucumis sativus [11]
  inhibition (INH): 17.5%
Botrytis cinerea
  Activity: inactive
Cucumis sativus [12]
  inhibition (INH): 56.8%

## COc1ccc(/C=C/C(=O)c2occc2O)cc1
Dinebra chinensis [1]
  inhibition (INH): 60.4%
Dinebra chinensis [2]
  inhibition (INH): 2.1%
Amaranthus tricolor [3]
  inhibition (INH): 54.8%
[4]
  inhibition (INH): 72.3%
[5]
  Activity: <10%
Pyricularia grisea
  Activity: inactive
Triticum aestivum [6]
  inhibition (INH): 53.3%
Triticum aestivum [7]
  inhibition (INH): 35.4%
[8]
  inhibition (INH): 38.1%
Amaranthus tricolor [9]
  inhibition (INH): 37.5%
[10]
  Activity: inactive
Cucumis sativus [11]
  inhibition (INH): 35.3%
Botrytis cinerea
  Activity: inactive
Cucumis sativus [12]
  inhibition (INH): 33.3%

## O=C(/C=C/c1ccccn1)c1occc1O
Dinebra chinensis [1]
  inhibition (INH): 37.4%
Dinebra chinensis [2]
  inhibition (INH): 6.7%
Amaranthus tricolor [3]
  inhibition (INH): 23.9%
[4]
  inhibition (INH): 31.8%
[5]
  Activity: <10%
Pyricularia grisea
  Activity: inactive
Triticum aestivum [6]
  inhibition (INH): 40.9%
Sorghum bicolor [13]
  inhibition (INH): 11.3%
Triticum aestivum [7]
  inhibition (INH): 37%
Sorghum bicolor [14]
  inhibition (INH): 13.6%
[8]
  inhibition (INH): 52.4%
Amaranthus tricolor [9]
  inhibition (INH): 18.8%
[10]
  Activity: inactive
Cucumis sativus [11]
  inhibition (INH): 33.1%
Botrytis cinerea
  Activity: inactive
Cucumis sativus [12]
  inhibition (INH): 31%

## Cc1ccc(/C=C/C(=O)c2occc2O)cc1
Dinebra chinensis [1]
  inhibition (INH): 47.8%
Dinebra chinensis [2]
  inhibition (INH): -10.1%
Amaranthus tricolor [3]
  inhibition (INH): 72.2%
[4]
  inhibition (INH): 45.9%
[5]
  Activity: <10%
Pyricularia grisea
  Activity: inactive
Triticum aestivum [6]
  inhibition (INH): 53%
Sorghum bicolor [13]
  inhibition (INH): 32.3%
Triticum aestivum [7]
  inhibition (INH): 28.1%
Sorghum bicolor [14]
  inhibition (INH): -3.8%
[8]
  inhibition (INH): 33.3%
Amaranthus tricolor [9]
  inhibition (INH): 12.5%
[10]
  Activity: inactive
Cucumis sativus [11]
  inhibition (INH): 39.3%
Botrytis cinerea
  Activity: inactive
Cucumis sativus [12]
  inhibition (INH): 32.7%

## O=C(/C=C/c1cccc([N+](=O)[O-])c1)c1occc1O
Dinebra chinensis [1]
  inhibition (INH): 63.1%
Dinebra chinensis [2]
  inhibition (INH): 1.4%
Amaranthus tricolor [3]
  inhibition (INH): 74.8%
[4]
  inhibition (INH): 85.9%
[5]
  Activity: <10%
Pyricularia grisea
  Activity: inactive
Triticum aestivum [6]
  inhibition (INH): 52.5%
Triticum aestivum [7]
  inhibition (INH): 33.9%
[8]
  inhibition (INH): 52.4%
Amaranthus tricolor [9]
  inhibition (INH): 25%
[10]
  Activity: inactive
Cucumis sativus [11]
  inhibition (INH): 40.6%
Botrytis cinerea
  Activity: inactive
Cucumis sativus [12]
  inhibition (INH): 46.8%

## N#Cc1cccc(/C=C/C(=O)c2occc2O)c1
Dinebra chinensis [1]
  inhibition (INH): 12.4%
Dinebra chinensis [2]
  inhibition (INH): -12.3%
Amaranthus tricolor [3]
  inhibition (INH): 31.7%
[4]
  inhibition (INH): -5.9%
[5]
  Activity: <10%
Pyricularia grisea
  Activity: inactive
Triticum aestivum [6]
  inhibition (INH): 36.1%
Sorghum bicolor [13]
  inhibition (INH): 24%
Triticum aestivum [7]
  inhibition (INH): 30.5%
Sorghum bicolor [14]
  inhibition (INH): 34%
[8]
  inhibition (INH): 14.3%
Amaranthus tricolor [9]
  inhibition (INH): 37.5%
[10]
  Activity: inactive
Cucumis sativus [11]
  inhibition (INH): 13.7%
Botrytis cinerea
  Activity: inactive
Cucumis sativus [12]
  inhibition (INH): 33.3%

## COC(=O)[C@@H](C)Oc1ccc(Oc2ncc(C(F)(F)F)cc2Cl)cc1 [HALOXYFOP-P-METHYL]
Dinebra chinensis [1]
  inhibition (INH): 100%
Dinebra chinensis [2]
  inhibition (INH): 100%
Amaranthus tricolor [3]
  inhibition (INH): 21.6%
[4]
  inhibition (INH): 17.2%
Triticum aestivum [6]
  inhibition (INH): 100%
Sorghum bicolor [13]
  inhibition (INH): 100%
Triticum aestivum [7]
  inhibition (INH): 100%
Sorghum bicolor [14]
  inhibition (INH): 100%
[8]
  inhibition (INH): 44.4%
Amaranthus tricolor [9]
  inhibition (INH): 2.1%
Cucumis sativus [11]
  inhibition (INH): 31.5%
Cucumis sativus [12]
  inhibition (INH): 42.1%

## O=C(/C=C/c1ccco1)c1occc1O
Dinebra chinensis [1]
  inhibition (INH): 56.1%
Dinebra chinensis [2]
  inhibition (INH): -3.2%
Amaranthus tricolor [3]
  inhibition (INH): 69.6%
[4]
  inhibition (INH): 82.1%
[5]
  Activity: <10%
Pyricularia grisea
  Activity: inactive
Triticum aestivum [6]
  inhibition (INH): 49.6%
Sorghum bicolor [13]
  inhibition (INH): 12.4%
Triticum aestivum [7]
  inhibition (INH): 24.4%
Sorghum bicolor [14]
  inhibition (INH): 4%
[8]
  inhibition (INH): 38.1%
Amaranthus tricolor [9]
  inhibition (INH): 12.5%
[10]
  Activity: inactive
Cucumis sativus [11]
  inhibition (INH): 49.7%
Botrytis cinerea
  Activity: inactive
Cucumis sativus [12]
  inhibition (INH): 36.1%

## O=C(/C=C/c1ccc(Cl)cc1Cl)c1occc1O
Dinebra chinensis [1]
  inhibition (INH): 57.1%
Dinebra chinensis [2]
  inhibition (INH): -0.7%
Amaranthus tricolor [3]
  inhibition (INH): 69.6%
[4]
  inhibition (INH): 87.2%
[5]
  Activity: <10%
Pyricularia grisea
  Activity: inactive
Triticum aestivum [6]
  inhibition (INH): 63.4%
Triticum aestivum [7]
  inhibition (INH): 39.5%
[8]
  inhibition (INH): 42.9%
Amaranthus tricolor [9]
  inhibition (INH): 18.8%
[10]
  Activity: inactive
Cucumis sativus [11]
  inhibition (INH): 37.3%
Botrytis cinerea
  Activity: inactive
Cucumis sativus [12]
  inhibition (INH): 35.1%
